pIC50, pKd, pKi: −log10 of the molar value. Marks after values point to notes of the source that are not given here.
How the values were obtained:
GST-PXRLBD = target: T1, GST-PXRLBD (Homo sapiens, UniProt O75469); experiment: Interaction of BODIPY Fl-vindoline with GST-PXRLBD, Kd from specific binding curve; settings: buffer 50 mM Tris, 50 mM KCl, 1 mM CHAPS, 0.1 mg/mL BSA, 0.05 mM DTT, pH 7.5
T1 construct: GST (N)
T1 sequence (O75469 146-433 limits assumed): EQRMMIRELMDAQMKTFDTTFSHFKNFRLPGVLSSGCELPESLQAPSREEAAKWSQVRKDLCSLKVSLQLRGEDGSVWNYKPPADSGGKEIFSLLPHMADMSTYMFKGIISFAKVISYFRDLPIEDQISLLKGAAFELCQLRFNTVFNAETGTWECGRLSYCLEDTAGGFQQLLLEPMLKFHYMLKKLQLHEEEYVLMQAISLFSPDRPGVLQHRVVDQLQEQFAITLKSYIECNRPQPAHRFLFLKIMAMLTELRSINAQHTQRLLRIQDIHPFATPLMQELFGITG
Protocol: Assay was performed using a buffer solution containing 50 mM Tris, 50 mM KCl, 1 mM CHAPS, 0.1 mg/mL BSA, and 0.05 mM DTT (pH=7.5).

hPXR [1] = target: T2, hPXR (Homo sapiens, UniProt O75469); experiment: Invitrogen hPXR TR-FRET binding kit, Fluormone PXR (SXR) Green as probe (published reports); settings: calculated from published data by equation 2
T2 construct: literature Invitrogen
T2 sequence (O75469 1-434): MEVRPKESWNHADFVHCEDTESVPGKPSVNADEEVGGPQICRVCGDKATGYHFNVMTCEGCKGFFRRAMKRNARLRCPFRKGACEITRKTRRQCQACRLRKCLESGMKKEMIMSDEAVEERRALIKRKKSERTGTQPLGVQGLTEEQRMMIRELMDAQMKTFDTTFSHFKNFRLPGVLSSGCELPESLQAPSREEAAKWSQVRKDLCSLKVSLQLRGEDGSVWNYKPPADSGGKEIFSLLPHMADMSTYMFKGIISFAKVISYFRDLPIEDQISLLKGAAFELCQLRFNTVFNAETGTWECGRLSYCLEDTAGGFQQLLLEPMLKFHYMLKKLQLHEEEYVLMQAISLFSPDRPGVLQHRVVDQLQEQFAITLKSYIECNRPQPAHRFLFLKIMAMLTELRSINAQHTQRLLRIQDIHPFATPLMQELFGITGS

hPXR [2] = target: T2, hPXR; settings: cited from earlier work; for Activity (Fluormone PXR (SXR) Green as Probe), % at single concentration: 1000 μM, published report (Lau et al.)
[3] = Solubility of test compound in the TR-FRET assay; settings: 100 μM

With `CC[C@]12C=CCN3CC[C@@]4(c5ccc(OC)cc5N(C)[C@H]4[C@@](O)(C(=O)OC)[C@@H]1OC(=O)CCC1=[N+]4C(C=C1)Cc1c(C)cc(C)n1[B-]4(F)F)[C@@H]32` (stereo partly drawn) [BODIPY Fl-vindoline, BODIPY FL vindoline] the pKd (GST-PXRLBD) was 6.59.

For `Clc1ccccc1C(c1ccccc1)(c1ccccc1)n1ccnc1` [Clotrimazole, clotrimazole], the pKi (hPXR [1]) is listed as 6.00, the pIC50 (hPXR [2]; values from published reports, read-out: IC50 (Fluormone PXR (SXR) Green as Probe)) is listed as 5.70 and the “Solubility in the assay” value [3] is listed as “incomplete solubility”.

For `C[C@@H]1C(=O)O[C@H]2C[C@@]34[C@H]5C[C@@H](C(C)(C)C)[C@]36[C@@H](OC(=O)[C@@H]6O)O[C@@]4(C(=O)O5)[C@]21O` [Ginkgolide A, ginkgolide A], the “Activity (Fluormone PXR (SXR) Green as Probe), % at single concentration” value (hPXR [2]) is listed as 54% (1000 μM)^g.

For `CC1C(=O)OC2C(O)C34C5CC(C(C)(C)C)C36C(OC(=O)C6O)OC4(C(=O)O5)C12O` (stereo not drawn) [Ginkgolide B, ginkgolide B], the “Activity (Fluormone PXR (SXR) Green as Probe), % at single concentration” value (hPXR [2]) is listed as 48% (1000 μM)^g.

From patent US20160033531A1, “METHOD AND COMPOSITIONS FOR DETECTING BINDING TO THE PREGNANE X RECEPTOR” (ST. JUDE CHILDREN'S RESEARCH HOSPITAL, priority 2013, published 2016)
